In ChEMBL document CHEMBL5303304, “EUbOPEN Chemogenomics Library - IncuCyte” (2023):

Key:
Format in all cases: toxicity, cell-based
[1] = tested on: HEK-293T; test: Incucyte cell viability with HEK293T; settings: human, 10 µM, compound concentration 10 uM
[2] = tested on: Fibroblast; test: Incucyte cell viability with human fibroblast; settings: 10 µM, compound concentration 10 uM
[3] = tested on: U2OS; test: Incucyte cell viability with U2OS; settings: human, 10 µM, compound concentration 10 uM
Also: unitless GR value; below 1 slowed growth and below 0 cell loss.

| Compound | Growth Rate ([1]; 0 h, replicate number 2) | Growth Rate ([2]; 12 h, replicate number 2) | Growth Rate ([2]; 18 h, replicate number 2) | Growth Rate ([2]; 24 h, replicate number 2) | Growth Rate ([3]; 6 h, replicate number 1) | Growth Rate ([3]; 6 h, replicate number 2) | Growth Rate ([3]; 12 h, replicate number 2) | Growth Rate ([3]; 18 h, replicate number 2) | Growth Rate ([3]; 24 h, replicate number 1) | Growth Rate ([3]; 24 h, replicate number 2) | Growth Rate ([1]; 6 h, replicate number 2) | Growth Rate ([1]; 12 h, replicate number 2) | Growth Rate ([1]; 18 h, replicate number 1) | Growth Rate ([1]; 18 h, replicate number 2) | Growth Rate ([1]; 24 h, replicate number 1) | Growth Rate ([2]; 0 h, replicate number 1) | Growth Rate ([2]; 6 h, replicate number 1) | Growth Rate ([2]; 6 h, replicate number 2) | Growth Rate ([2]; 12 h, replicate number 1) | Growth Rate ([2]; 18 h, replicate number 1) | also measured |
| --- | --- | --- | --- | --- | --- | --- | --- | --- | --- | --- | --- | --- | --- | --- | --- | --- | --- | --- | --- | --- | --- |
| C[C@@H]1C[C@H](C)CN(c2ncc(Cl)c(Nc3ccc4c(c3)cc(OC(C)(C)C(=O)O)c(=O)n4C)n2)C1 | 0.84 | 0.53 | 0.8 | 0.99 | 0.72 | -0.32 | 0.42 | 0.57 | 0.78 | 0.72 | – | – | – | – | – | – | – | – | – | – | Growth Rate ([1]; 0 h, replicate number 1): 0.98; Growth Rate ([3]; 0 h, replicate number 1): 0.85; Growth Rate ([3]; 0 h, replicate number 2): -0.87 |
| CN1CCN(c2ccc(/C=C(\C#N)c3ccccc3Br)cc2)CC1.Cl.Cl | -0.96 | -0.18 | -0.18 | -0.21 | 0.94 | – | – | – | – | – | 0.54 | 0.47 | 0.38 | 0.48 | 0.46 | 0.9 | 0.32 | 0.09 | 0.42 | 0.18 | Growth Rate ([1]; 6 h, replicate number 1): 0; Growth Rate ([1]; 12 h, replicate number 1): 0.24; Growth Rate ([1]; 24 h, replicate number 2): 0.71; Growth Rate ([2]; 0 h, replicate number 2): 0.65; Growth Rate ([2]; 24 h, replicate number 1): 0.05 |
| CC(C)S(=O)(=O)c1ccccc1Nc1nc(N[C@@H]2CCCN(CCCCCCCNC(=O)COc3cccc4c3C(=O)N(C3CCC(=O)N(C)C3=O)C4=O)C2)ncc1Cl (stereo not given in full) | -0.99 | -0.21 | -0.36 | -0.36 | 0.42 | 0.49 | 0.08 | -0.14 | -0.24 | -0.2 | -0.7 | -0.61 | -0.33 | -0.5 | -0.27 | -1 | 0.41 | 0.48 | -0.14 | -0.33 | Growth Rate ([1]; 0 h, replicate number 1): -1; Growth Rate ([1]; 6 h, replicate number 1): -0.52; Growth Rate ([1]; 12 h, replicate number 1): -0.4; Growth Rate ([1]; 24 h, replicate number 2): -0.39; Growth Rate ([2]; 24 h, replicate number 1): -0.23; Growth Rate ([3]; 0 h, replicate number 1): -1; Growth Rate ([3]; 12 h, replicate number 1): 0.11; Growth Rate ([3]; 18 h, replicate number 1): -0.06 |
| Cl.NC(=O)c1ccccc1Nc1nc(-c2ccc(N3CCOCC3)cc2)cc2ncccc12 | -1 | -0.21 | -0.14 | -0.07 | 0.76 | 0.39 | 0.32 | 0.25 | 0.66 | 0.24 | -0.55 | -0.36 | -0.2 | -0.24 | -0.11 | – | -0.14 | -0.47 | 0.05 | 0.13 | Growth Rate ([1]; 6 h, replicate number 1): -0.65; Growth Rate ([1]; 12 h, replicate number 1): -0.4; Growth Rate ([2]; 24 h, replicate number 1): 0.07; Growth Rate ([3]; 0 h, replicate number 2): 0.86; Growth Rate ([3]; 12 h, replicate number 1): 0.57; Growth Rate ([3]; 18 h, replicate number 1): 0.62 |
| N[C@H](C(=O)O)[C@@H]1CC(Cl)=NO1 [ACIVICIN] | – | 0.4 | 0.21 | 0.56 | – | – | – | – | 0.51 | – | 0.69 | 0.57 | 0.51 | 0.37 | 0.43 | -1 | -0.24 | -0.62 | 0.08 | 0.11 | Growth Rate ([1]; 0 h, replicate number 1): 0.17; Growth Rate ([1]; 12 h, replicate number 1): 0.69; Growth Rate ([1]; 24 h, replicate number 2): 0.37; Growth Rate ([2]; 24 h, replicate number 1): 0.22; Growth Rate ([3]; 12 h, replicate number 1): 0.81; Growth Rate ([3]; 18 h, replicate number 1): 0.99 |
| Cn1c(C2(NC(=O)c3ccc4c(C5CCCC5)c(-c5ncc(Br)cn5)n(C)c4c3)CCC2)nc2ccc(/C=C/C(=O)O)cc21 [DELEOBUVIR] | – | – | – | – | 0.31 | 0.75 | 0.92 | – | 0.7 | 0.88 | 0.72 | 0.88 | 0.92 | 0.88 | 0.91 | -1 | – | – | – | 0.98 | Growth Rate ([1]; 24 h, replicate number 2): 0.85; Growth Rate ([2]; 24 h, replicate number 1): 0.85; Growth Rate ([3]; 12 h, replicate number 1): 0.44; Growth Rate ([3]; 18 h, replicate number 1): 0.49 |
| COC(=O)Nc1nc2c(s1)-c1c(c(-c3cccnc3)nn1-c1ccc(C3(N(C)C)CC3)cc1)CC2.Cl.Cl | – | – | – | – | – | – | 0.96 | 0.74 | – | 0.64 | – | – | – | – | – | -0.29 | – | – | – | – | Growth Rate ([1]; 0 h, replicate number 1): -1; Growth Rate ([2]; 0 h, replicate number 2): -1; Growth Rate ([3]; 0 h, replicate number 1): -0.99 |
| C=CC(=O)Nc1cc(Nc2nccc(-n3cc(CN(C)C)c(-c4ccccc4)n3)n2)c(OC)cc1N1CCOCC1 [LAZERTINIB] | 0.8 | 0.67 | – | 0.86 | -0.48 | 0.77 | 0.92 | 0.96 | 0.78 | 0.91 | – | – | – | – | – | – | 0.27 | -0.96 | -1 | – | Growth Rate ([1]; 6 h, replicate number 1): 0.45; Growth Rate ([3]; 0 h, replicate number 2): -0.99; Growth Rate ([3]; 12 h, replicate number 1): 0.19; Growth Rate ([3]; 18 h, replicate number 1): 0.4 |
